Laboratory results taken from patent publication US11548888B2, “KRas G12C inhibitors” (Mirati Therapeutics, Inc., priority 2019, dated 2023).

The molecules below were run against T1, KRas G12C (Homo sapiens, UniProt P01116, G12C) (assay: Inhibition of KRas G12C-dependent cell growth: Phospho-ERK in NCI-H358 cells). Details: NCI-H358 cells expressing KRas G12C; Phospho-ERK (Thr202/Tyr204) normalized to GAPDH; 3 hours compound; 4 parameter fit.
T1 construct: NCI-H358 cells (ATCC CRL-5807) express KRas G12C
Type: cell-based
Method in brief: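 NCI-H358 cells (KRas G12C) exposed to compounds for 3 h, 0.5% DMSO final. Fixed cells immunostained for pERK(Thr202/Tyr204) and GAPDH with infrared secondary antibodies. pERK normalized to GAPDH, expressed as percent of DMSO control; IC50 from 4-parameter dose-response fit.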

T1 sequence (P01116 1-188 isoform P01116-2 G12C): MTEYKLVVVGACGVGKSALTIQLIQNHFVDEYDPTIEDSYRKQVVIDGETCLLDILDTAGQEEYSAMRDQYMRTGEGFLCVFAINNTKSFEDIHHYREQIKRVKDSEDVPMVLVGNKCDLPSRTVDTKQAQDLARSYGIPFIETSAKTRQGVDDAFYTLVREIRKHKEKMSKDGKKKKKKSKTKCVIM

| Structure (SMILES) | IC50 [nM] |
| --- | --- |
| C=C(F)C(=O)N1CCN(c2nc(N3CC(N(C)C)C3)nc3c(F)c(-c4cccc5cccc(Cl)c45)ncc23)C[C@@H]1CC#N [Example 91] | 29 |
| C=CC(=O)N1CCN(c2nc(OC[C@@H]3CCCN3C)nc3c(F)c(-c4cccc5cccc(Cl)c45)ncc23)[C@@H](C)C1 [Example 69] | 58 |
| C=C(F)C(=O)N1CCN(c2nc(OC[C@H]3[C@@H]4CC[C@@H](C4)N3CC(F)F)nc3c(F)c(-c4cccc5ccc(F)c(Cl)c45)ncc23)C[C@@H]1CC#N [Example 196] | 1730 |
| C=C(F)C(=O)N1CCN(c2nc(OC[C@@H]3CCN3CC)nc3c(F)c(-c4cccc5ccc(F)c(Cl)c45)ncc23)C[C@@H]1CC#N [Example 173] | 31 |
| C#Cc1cccc2cccc(-c3ncc4c(N5C[C@@H]6[C@H]5CCN6C(=O)C=C)ncnc4c3F)c12 [Example 247, 1-((1R,5R)-6-(7-(8-ethynylnaphthalen-1-yl)-8-fluoropyrido[4,3-d]pyrimidin-4-yl)-2,6-diazabicyclo[3.2.0]heptan-2-yl)prop-2-en-1-one] | 105 |
| CN1CC(F)(F)C[C@H]1COc1nc(N2CCN(C(=O)/C=C/CF)[C@@H](CC#N)C2)c2cnc(-c3cccc4cccc(Cl)c34)c(F)c2n1 [Example 25, 2-((S)-4-(7-(8-chloronaphthalen-1-yl)-2-(((S)-4,4-difluoro-1-methylpyrrolidin-2-yl)methoxy)-8-fluoropyrido[4,3-d]pyrimidin-4-yl)-1-((E)-4-fluorobut-2-enoyl)piperazin-2-yl)acetonitrile] | 13 |
| COC/C=C/C(=O)N1CCN(c2nc(OC[C@@H]3C[C@@H](F)CN3C)nc3c(F)c(-c4cccc5cccc(Cl)c45)ncc23)C[C@@H]1CC#N [Example 44, 2-[(2S)-4-[7-(8-chloro-1-naphthyl)-8-fluoro-2-[[(2S,4R)-4-fluoro-1-methyl-pyrrolidin-2-yl]methoxy]pyrido[4,3-d]pyrimidin-4-yl]-1-[(E)-4-methoxybut-2-enoyl]piperazin-2-yl]acetonitrile] | 15 |
| C=C(F)C(=O)N1CCN(c2nc(OCC3CN(C)C3)nc3c(F)c(-c4cccc5ccc(F)c(Cl)c45)ncc23)C[C@@H]1CC#N [Example 127] | 243 |
| COC/C=C/C(=O)N1CCN(c2nc(OC[C@@H]3CCCN3C)nc3c(F)c(-c4cncc5cccc(Cl)c45)ncc23)C[C@@H]1CC#N [Example 88] | 77 |
| C=CC(=O)N1CCN(c2ncnc3c(F)c(-c4cccc5ccc(F)c(Cl)c45)ncc23)C(CC#N)C1 (stereo not drawn) [Example 150] | 10000 |
| C=CC(=O)N1CC[C@@H]2[C@H]1CN2c1nc(NC)nc2c(F)c(-c3cccc4ccc(F)c(Cl)c34)ncc12 [Example 271] | 1070 |
| C/C=C/C(=O)N1CC[C@@H]2[C@H]1CN2c1ncnc2c(F)c(-c3cccc4ccc(F)c(Cl)c34)ncc12 [Example 260] | 10000 |
| C=CC(=O)N1CCN(c2nc(OC[C@@H]3CCCN3C)nc3c(F)c(-c4cccc5ccc(F)c(Cl)c45)ncc23)[C@@H](C)C1 [Example 119] | 39 |
| Cc1cccc2cncc(-c3ncc4c(N5CCN(C(=O)/C=C/CF)[C@@H](CC#N)C5)nc(OC[C@@H]5C[C@@H](F)CN5C)nc4c3F)c12 [Example 51, 2-[(2S)-1-[(E)-4-fluorobut-2-enoyl]-4-[8-fluoro-2-[[(2S,4R)-4-fluoro-1-methyl-pyrrolidin-2-yl]methoxy]-7-(5-methyl-4-isoquinolyl)pyrido[4,3-d]pyrimidin-4-yl]piperazin-2-yl]acetonitrile] | 19 |
| C=CC(=O)N1CCN(c2ncnc3c(F)c(-c4cccc5ccc(F)c(Cl)c45)ncc23)[C@@H](C)C1 [Example 123] | 3960 |
| C=C(F)C(=O)N1CCN(c2nc(OCCCN3C[C@@H]4C[C@H]3CO4)nc3c(F)c(-c4cccc5cccc(C)c45)ncc23)C[C@@H]1CC#N [Example 28, 2-[(2S)-4-[8-fluoro-7-(8-methyl-1-naphthyl)-2-[3-[(1S,4S)-2-oxa-5-azabicyclo[2.2.1]heptan-5-yl]propoxy]pyrido[4,3-d]pyrimidin-4-yl]-1-(2-fluoroprop-2-enoyl)piperazin-2-yl]acetonitrile] | 260 |
| C=CC(=O)N1CCN(c2ncnc3c(F)c(-c4c(C)c(Cl)cc5[nH]ncc45)ncc23)C[C@@H]1CC#N [Example 250] | 91 |
| C=CC(=O)N1C[C@@H]2[C@H]1CCN2c1nc(OC[C@@H]2CCCN2C)nc2c(F)c(-c3cccc4ccc(F)c(Cl)c34)ncc12 [Example 228] | 230 |
| C=CC(=O)N1CCN(c2ncnc3cc(-c4cc(O)cc5ccccc45)ncc23)CC1C#N (stereo not drawn) [Example 2, 1-acryloyl-4-(7-(3-hydroxynaphthalen-1-yl)pyrido[4,3-d]pyrimidin-4-yl)piperazine-2-carbonitrile] | 325 |
| C=CC(=O)N1CC[C@@H]2[C@H]1CN2c1ncnc2c(F)c(-c3cccc4ccc(F)c(Cl)c34)ncc12 [Example 175] | 134 |
| C=C(F)C(=O)N1CCN(c2nc(OCC34CCCN3C(CF)CC4)nc3c(F)c(-c4cccc5ccc(F)c(Cl)c45)ncc23)C[C@@H]1CC#N (stereo partly drawn) [Example 188] | 29 |
| C=C(F)C(=O)N1CCN(c2nc(OC[C@@H]3CCCN3CCF)nc3c(F)c(-c4cccc5ccc(F)c(Cl)c45)ncc23)C[C@@H]1CC#N [Example 182] | 27 |

Next, values leading:

| IC50 [nM] | Structure (SMILES) |
| --- | --- |
| 218 | N#CC[C@H]1CN(c2ncnc3c(F)c(-c4cccc5ccc(F)c(Cl)c45)ncc23)CCN1C(=O)/C=C/CF [Example 112] |
| 1 | C=C(F)C(=O)N1CCN(c2nc(OC[C@@]34CCCN3C[C@H](F)C4)nc3c(F)c(-c4cccc5ccc(F)c(Cl)c45)ncc23)C[C@@H]1CC#N [Example 229] |
| 45 | C=CC(=O)N1CCN(c2nc(OC[C@@H]3CCCN3C)nc3cc(-c4cccc5ccccc45)ncc23)C[C@@H]1CC#N [Example 5, 2-[(2S)-4-[2-[[(2S)-1-methylpyrrolidin-2-yl]methoxy]-7-(1-naphthyl)pyrido[4,3-d]pyrimidin-4-yl]-1-prop-2-enoyl-piperazin-2-yl]acetonitrile] |
| 30 | CO[C@@H]1C[C@@H](COc2nc(N3CCN(C(=O)/C=C/CF)[C@@H](CC#N)C3)c3cnc(-c4cccc5cccc(Cl)c45)c(F)c3n2)N(C)C1 [Example 27, 2-[(2S)-4-[7-(8-chloro-1-naphthyl)-8-fluoro-2-[[(2S,4R)-4-methoxy-1-methyl-pyrrolidin-2-yl]methoxy]pyrido[4,3-d]pyrimidin-4-yl]-1-[(E)-4-fluorobut-2-enoyl]piperazin-2-yl]acetonitrile] |
| 2 | C=CC(=O)N1CCN(c2nc(OC[C@@H]3CCCN3C)nc3c(F)c(-c4cccc5cccc(Cl)c45)ncc23)C[C@@H]1CC#N [Example 19, 2-((S)-1-acryloyl-4-(7-(8-chloronaphthalen-1-yl)-8-fluoro-2-(((S)-1-methylpyrrolidin-2-yl)methoxy)pyrido[4,3-d]pyrimidin-4-yl)piperazin-2-yl)acetonitrile] |
| 2520 | C=CC(=O)N1CCN(c2nc(OC[C@@H]3CCCN3C)nc3c(F)c(-c4c(C)ccc5[nH]ncc45)ncc23)CC1 [Example 80] |
| 256 | C=C(F)C(=O)N1CCN(c2nc(OCC3COC3)nc3c(F)c(-c4cccc5ccc(F)c(Cl)c45)ncc23)C[C@@H]1CC#N [Example 151] |
| 2160 | C=CC(=O)N1CC[C@@H]2[C@H]1CN2c1ncnc2cc(-c3cccc4ccc(F)c(Cl)c34)ncc12 [Example 254] |
| 37 | C=CC(=O)N1CCN(c2ncnc3c(F)c(-c4cccc5cccc(Cl)c45)ncc23)C[C@@H]1CC#N [Example 108] |
| 379 | C=CC(=O)N1CC[C@@H]2[C@H]1CN2c1nc(C)nc2c(F)c(-c3cccc4ccc(F)c(Cl)c34)ncc12 [Example 238] |
| 62 | C#Cc1cccc2cccc(-c3ncc4c(N5CCN(C(=O)C=C)CC5)nc(OC[C@@H]5CCCN5C)nc4c3F)c12 [Example 213, (S)-1-(4-(7-(8-ethynylnaphthalen-1-yl)-8-fluoro-2-((1-methylpyrrolidin-2-yl)methoxy)pyrido[4,3-d]pyrimidin-4-yl)piperazin-1-yl)prop-2-en-1-one] |
| 14 | C=C(F)C(=O)N1CCN(c2nc(OC[C@@H]3CCCN3C)nc3c(F)c(-c4cncc5cccc(Cl)c45)ncc23)C[C@@H]1CC#N [Example 54, 2-((S)-4-(7-(5-chloroisoquinolin-4-yl)-8-fluoro-2-(((S)-1-methylpyrrolidin-2-yl)methoxy)pyrido[4,3-d]pyrimidin-4-yl)-1-(2-fluoroacryloyl)piperazin-2-yl)acetonitrile] |
| 132 | C=C(F)C(=O)N1CCN(c2nc(OC[C@@H]3CCCN3C)nc3c(F)c(-c4cccc5ccccc45)ncc23)C[C@@H]1CC#N [Example 8, 2-[(2S)-4-[8-fluoro-2-[[(2S)-1-methylpyrrolidin-2-yl]methoxy]-7-(1-naphthyl)pyrido[4,3-d]pyrimidin-4-yl]-1-(2-fluoroprop-2-enoyl)piperazin-2-yl]acetonitrile] |
| 26 | C=C(F)C(=O)N1CCN(c2nc(OC[C@@H]3C[C@H](F)CN3C)nc3c(F)c(-c4cccc5ccc(F)c(Cl)c45)ncc23)C[C@@H]1CC#N [Example 166] |
| 216 | C=CC(=O)N1CCN(c2ncnc3c(F)c(-c4cccc5cccc(C)c45)ncc23)C[C@@H]1CC#N [Example 41, 2-[(2S)-4-[8-fluoro-7-(8-methyl-1-naphthyl)pyrido[4,3-d]pyrimidin-4-yl]-1-prop-2-enoyl-piperazin-2-yl]acetonitrile] |
| 1130 | C=CC(=O)N1CC[C@@H]2[C@H]1CN2c1nc(OCC)nc2c(F)c(-c3cccc4ccc(F)c(Cl)c34)ncc12 [Example 268] |
| 3 | C=CC(=O)N1CCN(c2nc(OC[C@@H]3CCCN3C)nc3c(F)c(-c4cncc5cccc(Cl)c45)ncc23)C[C@@H]1CC#N [Example 20, 2-[(2S)-4-[7-(5-chloro-4-isoquinolyl)-8-fluoro-2-[[(2S)-1-methylpyrrolidin-2-yl]methoxy]pyrido[4,3-d]pyrimidin-4-yl]-1-prop-2-enoyl-piperazin-2-yl]acetonitrile] |
